Residues, ends and D or L forms follow the SMILES beside them.
Assay: Inhibition of M-CSF/sRANKL-induced mouse BMDM differentiation into osteoclast after 72 hrs by TRAP staining-based microscopic analysis

## C#CCCC/C=C(\C)C(=O)N(C)[C@H](C(=O)N(C)[C@H](C(=O)N(C)[C@H](C(=O)N(C)[C@H](C(=O)N1CCC[C@H]1C(=O)N1CCC[C@H]1C(=O)CC)C(C)C)C(C)C)[C@@H](C)CC)[C@@H](C)CC (HELM PEPTIDE1{[C#CCCC/C=C(\C)C(=O)[*:2]].[meI].[meI].[meV].[meV].P.[CCC(=O)[C@@H]1CCCN1[*:1]]}$$$$V2.0)
  IC50: 780 nM

Source: BindingDB's records for doi:10.1016/j.bmcl.2015.09.044 (Keio University, 2015)
